What was measured:
[1] = target: human BChE (Homo sapiens, UniProt P06276); test: biochemical; conditions: read-out: BChE % Inhibition;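 further: inhibition of BChE determined with an adapted Ellman method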
Protocol: (§1) According to the modified Ellman approach outlined in our earlier works − the AChE and BChE inhibitory activities of the obtained compounds were evaluated.

[2] = target: T1, AChE (Homo sapiens, UniProt P22303); test: AChE inhibition, modified Ellman approach; assay type: biochemical; conditions: for inhibition at 1000 µM: 10^-3 M; for inhibition at 100 µM: 10^-4 M; for inhibition at 10 µM: 10^-5 M; for inhibition at 1 µM: 10^-6 M; for inhibition at 0.1 µM: 10^-7 M; for inhibition at 0.01 µM: 10^-8 M; for inhibition at 0.001 µM: 10^-9 M
T1 sequence (P22303 32-614): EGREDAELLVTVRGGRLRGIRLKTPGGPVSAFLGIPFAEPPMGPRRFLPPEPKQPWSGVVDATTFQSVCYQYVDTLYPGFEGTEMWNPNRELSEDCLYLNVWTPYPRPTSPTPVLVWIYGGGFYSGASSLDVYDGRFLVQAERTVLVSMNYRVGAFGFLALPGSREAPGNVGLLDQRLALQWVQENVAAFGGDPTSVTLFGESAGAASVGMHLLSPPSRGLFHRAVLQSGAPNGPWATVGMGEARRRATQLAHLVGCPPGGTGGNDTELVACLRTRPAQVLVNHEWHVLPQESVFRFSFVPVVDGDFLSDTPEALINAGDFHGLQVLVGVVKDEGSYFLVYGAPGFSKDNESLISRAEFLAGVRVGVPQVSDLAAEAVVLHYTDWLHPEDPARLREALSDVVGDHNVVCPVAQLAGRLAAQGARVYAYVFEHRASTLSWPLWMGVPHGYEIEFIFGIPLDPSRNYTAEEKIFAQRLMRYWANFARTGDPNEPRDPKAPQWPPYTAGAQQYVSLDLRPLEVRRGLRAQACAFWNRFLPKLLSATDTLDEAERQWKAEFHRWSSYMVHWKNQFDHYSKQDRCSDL
Protocol: as §1

[3] = target: T2, Human β-Secretase (BACE-1) (Homo sapiens, UniProt P56817); test: Human β-Secretase (BACE-1) Inhibitor Screening Assay kit (fluorometric); assay type: biochemical
T2 construct: purchased K720-100
T2 sequence (P56817 46-501): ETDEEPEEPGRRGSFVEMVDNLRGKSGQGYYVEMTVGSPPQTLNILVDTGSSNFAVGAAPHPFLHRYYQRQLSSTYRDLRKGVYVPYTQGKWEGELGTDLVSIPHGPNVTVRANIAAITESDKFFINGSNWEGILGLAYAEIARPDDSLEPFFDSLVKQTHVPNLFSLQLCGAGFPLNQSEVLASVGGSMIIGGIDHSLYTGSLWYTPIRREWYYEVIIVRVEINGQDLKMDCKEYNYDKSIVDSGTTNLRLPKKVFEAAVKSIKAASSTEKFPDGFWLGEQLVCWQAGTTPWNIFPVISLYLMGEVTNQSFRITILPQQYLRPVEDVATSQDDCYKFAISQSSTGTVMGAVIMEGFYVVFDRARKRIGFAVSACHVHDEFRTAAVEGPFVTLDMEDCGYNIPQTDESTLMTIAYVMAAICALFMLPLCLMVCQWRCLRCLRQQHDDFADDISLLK
Description: The experimental procedure was based on the “Human β-Secretase (BACE-1) Inhibitor Screening Assay” kit (Human β-Secretase (BACE1) Inhibitor Screening Kit (Fluorometric)-Catalog no: K720-100) protocol based on the fluorometric method as performed previously.

[4] = target: T1, AChE; test: Kinetic studies of AChE enzyme inhibition (Lineweaver–Burk, secondary plot); assay type: biochemical; conditions: Lineweaver–Burk plots
Protocol: Enzyme kinetics studies were conducted to determine the mechanism of inhibition of AChE using a procedure similar to that of the inhibition assay for cholinesterase enzymes. […] Linear Lineweaver–Burk graphs were used to estimate the type of inhibition of this compound. The velocity curves of the substrates were recorded in the absence and presence of compound 4m. […] In each case, the initial velocity measurements were obtained at different substrate (ATC) concentrations ranging from 600 to 18.75 μM.
For this purpose, this compound was prepared at different concentrations (IC50, 2xIC50 and IC50/2). Moreover, a substrate (ATC) was used at various concentrations (600, 300, 150, 75, 37.5, and 18.75 μM). The enzyme kinetics assay was carried out as in our previous. − Lineweaver–Burk plots were formed using Microsoft Office Excel 2013. The K i values of the compound were easily calculated from the second plot with a common intercept on the x-axis (corresponding to –K i).

human BChE, sequence (P06276 29-602): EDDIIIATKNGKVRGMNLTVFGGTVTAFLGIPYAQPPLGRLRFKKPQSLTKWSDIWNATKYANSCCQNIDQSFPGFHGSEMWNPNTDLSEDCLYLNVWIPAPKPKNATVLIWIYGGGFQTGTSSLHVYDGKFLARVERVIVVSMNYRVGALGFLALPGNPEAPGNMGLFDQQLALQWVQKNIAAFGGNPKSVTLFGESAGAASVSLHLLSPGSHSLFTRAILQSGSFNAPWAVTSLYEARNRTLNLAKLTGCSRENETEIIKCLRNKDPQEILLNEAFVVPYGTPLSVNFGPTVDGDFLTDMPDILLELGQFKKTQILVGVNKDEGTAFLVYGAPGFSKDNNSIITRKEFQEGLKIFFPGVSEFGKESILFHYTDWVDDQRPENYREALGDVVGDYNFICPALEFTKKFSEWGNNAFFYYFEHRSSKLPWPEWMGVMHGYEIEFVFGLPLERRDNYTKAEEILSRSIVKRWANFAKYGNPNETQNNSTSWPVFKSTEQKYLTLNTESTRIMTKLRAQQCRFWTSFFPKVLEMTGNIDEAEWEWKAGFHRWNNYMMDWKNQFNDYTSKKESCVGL

Row | SMILES | inhibition at 100 µM [1] [%] | inhibition at 1000 µM [1] [%] | inhibition at 1000 µM [2] [%] | inhibition at 100 µM [2] [%] | IC50 [3] [nM] | IC50 [2] [nM] | inhibition at 10 µM [2] [%] | inhibition at 1 µM [2] [%] | inhibition at 0.1 µM [2] [%] | inhibition at 0.01 µM [2] [%] | inhibition at 0.001 µM [2] [%] | type of AChE inhibition [4] | β-secretase (BACE-1) IC50 [3]
1 | O=C(c1ccccc1)c1oc2ccccc2c1CSC(=S)N1CCCCC1 [4a, (2-Benzoylbenzofuran-3-yl)methylpiperidine-1-dithiocarbamate] | 25.8 ± 0.92 | 31.7 ± 0.89 | 65.2 ± 1.02 | 40.7 ± 0.98 | – | – | – | – | – | – | – | – | –
2 | CC1CCCCN1C(=S)SCc1c(C(=O)c2ccccc2)oc2ccccc12 (stereo not drawn) [4b, (2-Benzoylbenzofuran-3-yl)methyl 2-Methylpiperidine-1-dithiocarbamate] | 27.3 ± 0.79 | 33.9 ± 0.9 | 58.4 ± 1.9 | 43.4 ± 1.62 | – | – | – | – | – | – | – | – | –
3 | CC1CCCN(C(=S)SCc2c(C(=O)c3ccccc3)oc3ccccc23)C1 (stereo not drawn) [4c, (2-Benzoylbenzofuran-3-yl)methyl 3-Methylpiperidine-1-dithiocarbamate] | 22.1 ± 0.84 | 30.4 ± 0.9 | 71.7 ± 1.1 | 43 ± 0.89 | – | – | – | – | – | – | – | – | –
4 | CC1CCN(C(=S)SCc2c(C(=O)c3ccccc3)oc3ccccc23)CC1 [4d, (2-Benzoylbenzofuran-3-yl)methyl 4-Methylpiperidine-1-dithiocarbamate] | 24.4 ± 0.93 | 28.3 ± 0.81 | 63.8 ± 1.59 | 40.7 ± 0.97 | – | – | – | – | – | – | – | – | –
5 | O=C(c1ccccc1)c1oc2ccccc2c1CSC(=S)N1CCC(Cc2ccccc2)CC1 [4e, (2-Benzoylbenzofuran-3-yl)methyl 4-Benzylpiperidine-1-dithiocarbamate] | 29 ± 0.73 | 35.6 ± 0.88 | 92.6 ± 1.38 | 88.6 ± 1.4 | 134 ± 6 | 49 ± 2 | 80.2 ± 1.11 | 74.3 ± 1.5 | 61.6 ± 0.92 | 45.4 ± 0.72 | 21.5 ± 0.86 | – | –
6 | O=C(c1ccccc1)c1oc2ccccc2c1CSC(=S)N1CCOCC1 [4f, (2-Benzoylbenzofuran-3-yl)methyl Morpholine-4-dithiocarbamate] | 20.7 ± 0.86 | 28.4 ± 0.92 | 70.8 ± 1.12 | 41.3 ± 0.9 | – | – | – | – | – | – | – | – | –
7 | CN(C)CCCN1CCN(C(=S)SCc2c(C(=O)c3ccccc3)oc3ccccc23)CC1 [4g, (2-Benzoylbenzofuran-3-yl)methyl 4-(3-(Dimethylamino)propyl)piperazine-1-dithiocarbamate] | 21.7 ± 0.93 | 29.3 ± 0.89 | 69 ± 0.97 | 39.1 ± 0.87 | – | – | – | – | – | – | – | – | –
8 | O=C(c1ccccc1)c1oc2ccccc2c1CSC(=S)N1CCN(C(=O)c2ccco2)CC1 [4h, (2-Benzoylbenzofuran-3-yl)methyl 4-(Furan-2-carbonyl)piperazine-1-dithiocarbamate] | 28.3 ± 0.82 | 36.8 ± 0.76 | 90.7 ± 1.24 | 84.2 ± 1.33 | 155 ± 7 | 54 ± 2 | 80.3 ± 1.1 | 75.9 ± 1.32 | 60.3 ± 0.97 | 45.7 ± 0.87 | 23 ± 0.78 | – | –
9 | O=C(c1ccccc1)c1oc2ccccc2c1CSC(=S)N1CCN(c2ncccn2)CC1 [4i, (2-Benzoylbenzofuran-3-yl)methyl 4-(Pyrimidine-2-yl)piperazine-1-dithiocarbamate] | 20.8 ± 0.88 | 28.6 ± 0.82 | 72.8 ± 1 | 43.6 ± 0.87 | – | – | – | – | – | – | – | – | –
10 | O=C(c1ccccc1)c1oc2ccccc2c1CSC(=S)N1CCN(c2ccccc2)CC1 [4j, (2-Benzoylbenzofuran-3-yl)methyl 4-Phenylpiperazine-1-dithiocarbamate] | 24.9 ± 0.92 | 31.6 ± 0.73 | 75.6 ± 1.05 | 41 ± 0.79 | – | – | – | – | – | – | – | – | –
11 | O=C(c1ccccc1)c1oc2ccccc2c1CSC(=S)N1CCN(c2ccc([N+](=O)[O-])cc2)CC1 [4k, (2-Benzoylbenzofuran-3-yl)methyl 4-(4-Nitrophenyl)piperazine-1-dithiocarbamate] | 23.6 ± 0.83 | 30.4 ± 0.93 | 69 ± 1 | 41.6 ± 0.95 | – | – | – | – | – | – | – | – | –
12 | COc1ccc(N2CCN(C(=S)SCc3c(C(=O)c4ccccc4)oc4ccccc34)CC2)cc1 [4l, (2-Benzoylbenzofuran-3-yl)methyl 4-(4-Methoxyphenyl)piperazine-1-dithiocarbamate] | 21.4 ± 0.87 | 30.5 ± 0.87 | 72.3 ± 1.1 | 43.9 ± 0.98 | – | – | – | – | – | – | – | – | –
13 | O=C(c1ccccc1)c1oc2ccccc2c1CSC(=S)N1CCN(CCO)CC1 [4m, (2-Benzoylbenzofuran-3-yl)methyl 4-(2-Hydroxyethyl)piperazine-1-dithiocarbamate] | 31.1 ± 0.73 | 39.1 ± 0.76 | 94.3 ± 1.64 | 89.4 ± 1.5 | 84 ± 3 | 29 ± 1 | 80.2 ± 1.48 | 75.4 ± 1.1 | 70.4 ± 1.21 | 44.7 ± 0.97 | 26.6 ± 0.72 | reversible and mixed-type inhibitor | –
14 | O=C(c1ccccc1)c1oc2ccccc2c1CSC(=S)N1CCN(c2ccc(Cl)cc2)CC1 [4n, (2-Benzoylbenzofuran-3-yl)methyl 4-(4-Chlorophenyl)piperazine-1-dithiocarbamate] | 20.1 ± 0.78 | 29.6 ± 0.86 | 76.7 ± 1.26 | 46.8 ± 0.86 | – | – | – | – | – | – | – | – | –
15 | O=C(c1ccccc1)c1oc2ccccc2c1CSC(=S)N1CCN(c2ccc(F)cc2)CC1 [4o, (2-Benzoylbenzofuran-3-yl)methyl 4-(4-Fluorophenyl)piperazine-1-dithiocarbamate] | 30.3 ± 0.82 | 37.5 ± 0.75 | 91.2 ± 1.57 | 83.6 ± 1.47 | > 10000 | 41 ± 2 | 75 ± 1.67 | 65.8 ± 1.1 | 58.3 ± 1 | 48 ± 0.95 | 20.8 ± 0.74 | – | no significant inhibition

Source: PMC12332554, “Novel Benzofuran-3-yl-methyl and Aliphatic Azacyclics: Design, Synthesis, and In Vitro and In Silico anti-Alzheimer Disease Activity Studies” (ACS Omega, 2025)
